Earlier results, collected in patent US7041655B1, “Capillary membrane stabilization and reduction of tissue injury through use of IV biodegradable macromolecules with antioxidants and/or other chemicals” (priority 1996, dated 2006).

Assays:
[1] = in 24 hours; molecules below 50,000 daltons rapidly eliminated by renal excretion
[2] = intravenous infusion
[3] = used for fluid replacement therapy

Row | Substance | part of a given total dose appearing in the urine [1] | duration of improved hemodynamic status of the subject [2] [h] | time over which the expansion of plasma volume decreases ([2]; expansion slightly in excess of the volume infused) [h] | toxic reactions observed [3]
1 | hydroxyethyl starch | approximately 40% | ≥ 24 | 24 to 36 | Few toxic reactions
2 | dextran | – | – | – | Few toxic reactions
